# Several values for one entry are separate records, joined by “and”; a condition that tells them apart may be missing. Identical values can stand only once.
# What was measured:
# VIP peptides [1] = biological target: T1, VIP peptides (Rattus norvegicus, UniProt P01283)
# T1 sequence (P01283 whole entry): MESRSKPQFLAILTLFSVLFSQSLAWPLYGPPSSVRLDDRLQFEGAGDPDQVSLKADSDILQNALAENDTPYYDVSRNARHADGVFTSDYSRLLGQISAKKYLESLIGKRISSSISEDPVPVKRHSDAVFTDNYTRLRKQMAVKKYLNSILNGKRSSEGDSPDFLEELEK
# VIP peptides [2] = biological target: T2, VIP peptides (Cavia porcellus, UniProt P04566)
# T2 sequence (P04566 whole entry): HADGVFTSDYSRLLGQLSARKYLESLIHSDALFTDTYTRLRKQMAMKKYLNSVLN
# VIP peptides [3] = biological target: T3, VIP peptides (Homo sapiens, UniProt P01282)
# T3 sequence (P01282 whole entry): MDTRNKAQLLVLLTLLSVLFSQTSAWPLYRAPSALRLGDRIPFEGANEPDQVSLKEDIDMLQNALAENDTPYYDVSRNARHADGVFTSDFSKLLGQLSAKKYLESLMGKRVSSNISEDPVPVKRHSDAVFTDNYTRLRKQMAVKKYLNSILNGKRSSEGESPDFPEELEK
Compound,Ki (VIP peptides [1]),Ki (VIP peptides [2]),Ki (VIP peptides [3])
CC[C@H](C)[C@H](NC(=O)[C@H](CO)NC(=O)[C@H](CC(N)=O)NC(=O)[C@H](CC(C)C)NC(=O)[C@H](Cc1ccc(O)cc1)NC(=O)[C@H](CCCCN)NC(=O)[C@H](CCCCN)NC(=O)[C@@H](NC(=O)[C@H](C)NC(=O)[C@H](CCSC)NC(=O)[C@H](CCC(N)=O)NC(=O)[C@H](CCCCN)NC(=O)[C@H](CCCN=C(N)N)NC(=O)[C@H](CC(C)C)NC(=O)[C@H](CCCN=C(N)N)NC(=O)[C@@H](NC(=O)[C@H](Cc1ccc(O)cc1)NC(=O)[C@H](CC(N)=O)NC(=O)[C@H](CC(=O)O)NC(=O)[C@@H](NC(=O)[C@H](Cc1ccccc1)NC(=O)[C@@H](NC(=O)[C@H](C)NC(=O)[C@H](CC(=O)O)NC(=O)[C@@H](CO)NC(=O)[C@@H](N)Cc1cnc[nH]1)C(C)C)[C@@H](C)O)[C@@H](C)O)C(C)C)C(=O)N[C@@H](CC(C)C)C(=O)N[C@@H](CC(N)=O)C(N)=O [VIP [D-Ser2]],4.2 nM and 15.1 nM and 38.9 nM,8.1 nM,1.9 nM and 18.2 nM and 15.9 nM
H-HSDAVFTDNYTRARKQMAVKKYLNSILN-NH2 [VIP Ala13],1.9 nM and 9.3 nM and 10 nM,9.5 nM,6.6 nM and 7.2 nM and 3.4 nM
H-HSDAVFTDAYTRLRKQMAVKKYLNSILN-NH2 [VIP Ala9],0.16 nM and 1.3 nM and 0.49 nM,1.6 nM,0.29 nM and 1.8 nM and 1.4 nM
H-HSDAVFTDNYTRLRKQMAVKKALNSILN-NH2 [VIP Ala22],1.1 nM and 3.2 nM and 2.8 nM,8.5 nM,3.8 nM and 7.6 nM and 7.1 nM
H-HSDAVFTDNYTRLRKQAAVKKYLNSILN-NH2 [VIP Ala17],1.6 nM and 5 nM and 3.6 nM,4 nM,0.74 nM and 4.5 nM and 3.9 nM
CC[C@H](C)[C@H](NC(=O)[C@H](CO)NC(=O)[C@H](CC(N)=O)NC(=O)[C@H](CC(C)C)NC(=O)[C@H](Cc1ccc(O)cc1)NC(=O)[C@H](CCCCN)NC(=O)[C@H](CCCCN)NC(=O)[C@@H](NC(=O)[C@H](C)NC(=O)[C@H](CCSC)NC(=O)[C@H](CCC(N)=O)NC(=O)[C@H](CCCCN)NC(=O)[C@H](CCCN=C(N)N)NC(=O)[C@H](CC(C)C)NC(=O)[C@H](CCCN=C(N)N)NC(=O)[C@@H](NC(=O)[C@H](Cc1ccc(O)cc1)NC(=O)[C@H](CC(N)=O)NC(=O)[C@H](CC(=O)O)NC(=O)[C@@H](NC(=O)[C@H](Cc1ccccc1)NC(=O)[C@@H](NC(=O)[C@@H](C)NC(=O)[C@H](CC(=O)O)NC(=O)[C@H](CO)NC(=O)[C@@H](N)Cc1cnc[nH]1)C(C)C)[C@@H](C)O)[C@@H](C)O)C(C)C)C(=O)N[C@@H](CC(C)C)C(=O)N[C@@H](CC(N)=O)C(N)=O [VIP [D-Ala4]],1.1 nM and 7.2 nM and 10.5 nM,16.2 nM,
CC[C@H](C)[C@H](NC(=O)[C@H](CO)NC(=O)[C@H](CC(N)=O)NC(=O)[C@H](CC(C)C)NC(=O)[C@H](Cc1ccc(O)cc1)NC(=O)[C@H](CCCCN)NC(=O)[C@H](CCCCN)NC(=O)[C@@H](NC(=O)[C@H](C)NC(=O)[C@H](CCSC)NC(=O)[C@H](CCC(N)=O)NC(=O)[C@H](CCCCN)NC(=O)[C@H](CCCN=C(N)N)NC(=O)[C@H](CC(C)C)NC(=O)[C@H](CCCN=C(N)N)NC(=O)[C@@H](NC(=O)[C@H](Cc1ccc(O)cc1)NC(=O)[C@H](CC(N)=O)NC(=O)[C@H](CC(=O)O)NC(=O)[C@@H](NC(=O)[C@H](Cc1ccccc1)NC(=O)[C@@H](NC(=O)[C@H](C)NC(=O)[C@@H](CC(=O)O)NC(=O)[C@H](CO)NC(=O)[C@@H](N)Cc1cnc[nH]1)C(C)C)[C@@H](C)O)[C@@H](C)O)C(C)C)C(=O)N[C@@H](CC(C)C)C(=O)N[C@@H](CC(N)=O)C(N)=O [VIP [D-Asp3]],0.93 nM and 5.4 nM and 6.5 nM,9.1 nM,
CC[C@H](C)[C@H](NC(=O)[C@H](CO)NC(=O)[C@H](CC(N)=O)NC(=O)[C@H](CC(C)C)NC(=O)[C@H](Cc1ccc(O)cc1)NC(=O)[C@H](CCCCN)NC(=O)[C@H](CCCCN)NC(=O)[C@@H](NC(=O)[C@H](C)NC(=O)[C@H](CCSC)NC(=O)[C@@H](CCC(N)=O)NC(=O)[C@H](CCCCN)NC(=O)[C@H](CCCN=C(N)N)NC(=O)[C@H](CC(C)C)NC(=O)[C@H](CCCN=C(N)N)NC(=O)[C@@H](NC(=O)[C@H](Cc1ccc(O)cc1)NC(=O)[C@H](CC(N)=O)NC(=O)[C@H](CC(=O)O)NC(=O)[C@@H](NC(=O)[C@H](Cc1ccccc1)NC(=O)[C@@H](NC(=O)[C@H](C)NC(=O)[C@H](CC(=O)O)NC(=O)[C@H](CO)NC(=O)[C@@H](N)Cc1cnc[nH]1)C(C)C)[C@@H](C)O)[C@@H](C)O)C(C)C)C(=O)N[C@@H](CC(C)C)C(=O)N[C@@H](CC(N)=O)C(N)=O [VIP [D-Gln16]],1 nM and 5.6 nM and 9.3 nM,11.5 nM,1.1 nM and 2.9 nM and 3.5 nM
CC[C@H](C)[C@H](NC(=O)[C@H](CO)NC(=O)[C@H](CC(N)=O)NC(=O)[C@H](CC(C)C)NC(=O)[C@H](Cc1ccc(O)cc1)NC(=O)[C@H](CCCCN)NC(=O)[C@H](CCCCN)NC(=O)[C@@H](NC(=O)[C@H](C)NC(=O)[C@H](CCSC)NC(=O)[C@H](CCC(N)=O)NC(=O)[C@H](CCCCN)NC(=O)[C@H](CCCN=C(N)N)NC(=O)[C@H](CC(C)C)NC(=O)[C@H](CCCN=C(N)N)NC(=O)[C@@H](NC(=O)[C@H](Cc1ccc(O)cc1)NC(=O)[C@H](CC(N)=O)NC(=O)[C@H](CC(=O)O)NC(=O)[C@H](C)NC(=O)[C@H](Cc1ccccc1)NC(=O)[C@@H](NC(=O)[C@H](C)NC(=O)[C@H](CC(=O)O)NC(=O)[C@H](CO)NC(=O)[C@@H](N)Cc1cnc[nH]1)C(C)C)[C@@H](C)O)C(C)C)C(=O)N[C@@H](CC(C)C)C(=O)N[C@@H](CC(N)=O)C(N)=O [VIP Ala7],16.2 nM and 107 nM and 53.7 nM,66.1 nM,17.8 nM and 51.3 nM and 35.7 nM
CC[C@H](C)[C@H](NC(=O)[C@H](CO)NC(=O)[C@H](CC(N)=O)NC(=O)[C@H](CC(C)C)NC(=O)[C@H](Cc1ccc(O)cc1)NC(=O)[C@H](CCCCN)NC(=O)[C@H](CCCCN)NC(=O)[C@@H](NC(=O)[C@H](C)NC(=O)[C@H](CCSC)NC(=O)[C@H](CCC(N)=O)NC(=O)[C@H](CCCCN)NC(=O)[C@H](CCCN=C(N)N)NC(=O)[C@H](CC(C)C)NC(=O)[C@H](CCCN=C(N)N)NC(=O)[C@@H](NC(=O)[C@H](Cc1ccc(O)cc1)NC(=O)[C@H](CC(N)=O)NC(=O)[C@H](CC(=O)O)NC(=O)[C@@H](NC(=O)[C@@H](Cc1ccccc1)NC(=O)[C@@H](NC(=O)[C@H](C)NC(=O)[C@H](CC(=O)O)NC(=O)[C@H](CO)NC(=O)[C@@H](N)Cc1cnc[nH]1)C(C)C)[C@@H](C)O)[C@@H](C)O)C(C)C)C(=O)N[C@@H](CC(C)C)C(=O)N[C@@H](CC(N)=O)C(N)=O [VIP [D-Phe6]],269 nM and 692 nM and 912 nM,400 nM,288 nM and 198 nM and 115 nM
H-HSDAVFTDNYTRLRKAMAVKKYLNSILN-NH2 [VIP Ala16],0.93 nM and 2.1 nM and 1.1 nM,5.1 nM,
CC[C@H](C)[C@H](NC(=O)[C@H](CO)NC(=O)[C@H](CC(N)=O)NC(=O)[C@H](CC(C)C)NC(=O)[C@H](Cc1ccc(O)cc1)NC(=O)[C@H](CCCCN)NC(=O)[C@H](CCCCN)NC(=O)[C@@H](NC(=O)[C@H](C)NC(=O)[C@H](CCSC)NC(=O)[C@H](CCC(N)=O)NC(=O)[C@H](CCCCN)NC(=O)[C@H](CCCN=C(N)N)NC(=O)[C@H](CC(C)C)NC(=O)[C@H](CCCN=C(N)N)NC(=O)[C@@H](NC(=O)[C@H](Cc1ccc(O)cc1)NC(=O)[C@H](CC(N)=O)NC(=O)[C@H](CC(=O)O)NC(=O)[C@@H](NC(=O)[C@H](Cc1ccccc1)NC(=O)[C@@H](NC(=O)[C@H](C)NC(=O)[C@H](CC(=O)O)NC(=O)[C@H](CO)NC(=O)[C@@H](N)Cc1cnc[nH]1)C(C)C)[C@@H](C)O)[C@@H](C)O)C(C)C)C(=O)N[C@@H](CC(C)C)C(=O)N[C@H](CC(N)=O)C(N)=O [VIP [D-Asn28]],1.5 nM and 6.3 nM and 11.8 nM,14.8 nM,
H-HSDAVFTDNYTRLRKQMAVAKYLNSILN-NH2 [VIP Ala20],1.7 nM and 3.5 nM and 3.3 nM,5.5 nM,
